Laboratory results as given in patent publication US20220071952A1, “METHODS OF TREATING AND PREVENTING HEPATOTOXICITY” (Natreon, Inc., priority 2020, published 2022).

Tests used:
[1] = system: paracetamol-induced hepatotoxicity in mice; experiment: Paracetamol-induced hepatotoxicity in mice, serum biochemical parameters (Example I); assay type: in vivo, Swiss albino mice; settings: for ALP / ALT / AST / Total Bilirubin / Total Protein / Triglyceride: 10 mg/kg p.o. + paracetamol 200 mg/kg p.o., 7 days, serum, mean ± SD, n=6
Text: 3-OH-DBP (Natreon, Inc., New Brunswick, N.J., synthesized to 99% purity w/w) was in the form of a white free flowing powder. 3,8-(OH)2-DBP (Natreon, Inc., New Brunswick, N.J., synthesized to 99% purity w/w) was in the form of a pale green free flowing powder. Paracetamol (acetaminophen) was in the form of a white solid tablet.
Swiss albino mice of both sexes, weighing approximately 25-30 g, were obtained from National Research Institute of Ayurveda for Drug Development (Govt. of India), Kolkata, and were housed in polypropylene cages at 22±3° C., relative air humidity of 45 to 55%, with 12.00 hr light and dark cycle (lighting on from 6:00 AM to 6:00 PM). Mice were provided standard pellet chow (carbohydrate 65.5%, protein 17.6%, fat 6.6%) and distilled water ad libitum. The mice were acclimatized for one week in the above laboratory conditions, before being used in this experiment. All experiments were conducted between 10.00 hr and 14.00 hr. Principles of laboratory animal care (NIH publication no. 85-23, revised 1985) were followed.
The animals were randomly assigned into four groups of six animals each, as set out in Table 1. […] After 1 hr of last treatment, blood samples were collected and serum was separated.

[2] = Body weight, food intake and water intake during alcohol-induced hepatotoxicity study (Example III); assay type: in vivo, Swiss Albino mice; settings: for change in body weight / change in food intake / change in water intake: 10 mg/kg p.o. + alcohol, 15 days; for body weight / food intake / water intake: 10 mg/kg p.o. + alcohol 5 g/kg p.o. twice daily, mean ± SD
Description: Swiss Albino male and female mice weighing approximately 30±5 g, 2 month old mice were obtained from National Research Institute of Ayurveda for Drug Development (Govt. of India), Kolkata, and were housed in polypropylene cages at 22±3° C., relative air humidity of 45 to 55%, with 12.00 hr light & dark cycle (lighting on from 6:00 AM to 6:00 PM). Mice were provided a standard pellet chow diet (carbohydrate 65.5%, protein 17.6%, fat 6.6%) and distilled water ad libitum. The mice were acclimatized for one week in the laboratory conditions, before being used in the experiment. All experiments were conducted between 10.00 hr and 14.00 hr. Principles of laboratory animals care (NIH publication no. 85-23, revised 1985) were followed.
Vehicle control animals (“Con Veh”) were administered 0.3% CMC orally for 15 days.
Animals receiving ethanol (“Alc+0.3 CMC”, “3-OH-DBP+Alc”, “3,8-(OH)2-DBP+Alc”) were administered ethanol in 0.3% CMC orally as discussed above.
Results were expressed in terms of mean±SD (n=8). The data were subjected to one way ANOVA followed by Tukey's test using GraphPad Prism 4.0 software to establish statistical significance (*p<0.05, **p<0.01, ***p<0.001 vs. vehicle control; # p<0.05, ## p<0.01, ### p<0.001 vs. animals administered ethanol only).

[3] = system: paracetamol-induced hepatotoxicity in mice; experiment: Synergistic hepatoprotective activity of DBPs against paracetamol-induced hepatotoxicity (Example IV); assay type: in vivo; settings: for ACP / ALP / ALT / AST / Total Protein: paracetamol 200 mg/kg, mean ± SEM, n=4
[4] = female mice, doses 3-OH-DBP 2, 3,8-(OH)2-DBP 10, 1:5 combination 12 mg/kg b.w.
[5] = female mice, doses 3-OH-DBP 10, 3,8-(OH)2-DBP 50, 1:5 combination 60 mg/kg b.w.
[6] = male mice, doses 3-OH-DBP 2, 3,8-(OH)2-DBP 10, 1:5 combination 12 mg/kg b.w.
[7] = male mice, doses 3-OH-DBP 10, 3,8-(OH)2-DBP 50, 1:5 combination 60 mg/kg b.w.

In the case of `O=c1oc2cc(O)ccc2c2ccccc12` [3-OH-DBP, 3-hydroxy-dibenzo-alpha-pyrone], the “effect on paracetamol-induced hepatotoxicity (ALT, AST, triglyceride, bilirubin vs paracetamol group)” value ([1]; 10 mg/kg body weight, male (Table 2) and female (Table 3) mice) is reported as “significantly attenuated and reversed the paracetamol-induced hepatotoxicity”, the “hepatoprotective activity against paracetamol, comparison of both test compounds” value ([1]; female mice, 10 mg/kg orally for 7 days, paracetamol 200 mg/kg) is reported as “almost the same hepatoprotective activity” and the ALP ([1]; female mice) is reported as 82.04 ± 8.96 IU/L. The ALT ([1]; female mice) was 62.32 ± 15.97 IU/L, the AST ([1]; female mice) was 62.28 ± 12.46 IU/L and the “Total Bilirubin” value ([1]; female mice) was 0.46 ± 0.26 mg/dL. The Total Protein ([1]; female mice) was 6.6 ± 0.44 g/dL, the Triglyceride ([1]; female mice) was 61.05 ± 1.73 mg/dL and the “hepatoprotective activity against paracetamol-induced liver damage, in comparison with 3,8-(OH)2-DBP” value ([1]; male mice, 10 mg/kg orally once daily for 7 days, paracetamol 200 mg/kg) was “better hepatoprotective activity”. For the same compound, the ALP ([1]; male mice) was 80.00 ± 5.64 IU/L, the ALT ([1]; male mice) was 65.42 ± 23.50 IU/L and the AST ([1]; male mice) was 52.23 ± 3.73 IU/L. The “Total Bilirubin” value ([1]; male mice) was 0.50 ± 0.23 mg/dL, the Total Protein ([1]; male mice) was 6.27 ± 0.14 g/dL and the Triglyceride ([1]; male mice) was 97.65 ± 1.96 mg/dL. The “change in body weight” value ([2]; female mice) was “No significant change”, the “change in food intake” value ([2]; female mice) was “No significant change” and the “change in water intake” value ([2]; female mice) was “No significant change”. For the same compound, the body weight ([2]; female mice, Day 0) was 26.83 ± 1.60 gm, the food intake ([2]; female mice, Day 0) was 8.14 ± 1.67 gm and the water intake ([2]; female mice, Day 0) was 4.16 ± 0.60 mL. It also gave a body weight ([2]; female mice, Day 5) of 25.5 ± 1.22 gm, a water intake ([2]; female mice, Day 5) of 4.32 ± 0.28 mL and a body weight ([2]; female mice, Day 10) of 24.33 ± 1.97 gm. It also gave a food intake ([2]; female mice, Day 10) of 16.38 ± 1.18 gm, a water intake ([2]; female mice, Day 10) of 1.85 ± 0.30 mL and a body weight ([2]; female mice, Day 15) of 25.17 ± 0.75 gm. For the same compound, the food intake ([2]; female mice, Day 15) was 15.88 ± 0.76 gm, the water intake ([2]; female mice, Day 15) was 1.84 ± 0.18 mL and the “change in body weight” value ([2]; male mice) was “No significant change”. The “change in food intake” value ([2]; male mice) was “No significant change”, the “change in water intake” value ([2]; male mice) was “No significant change” and the body weight ([2]; male mice, Day 0) was 24.33 ± 2.25 gm. For the same compound, the food intake ([2]; male mice, Day 0) was 14.02 ± 0.06 gm, the water intake ([2]; male mice, Day 0) was 2.05 ± 0.23 mL and the body weight ([2]; male mice, Day 5) was 24 ± 1.55 gm. It also gave a food intake ([2]; male mice, Day 5) of 14.18 ± 0.72 gm, a water intake ([2]; male mice, Day 5) of 2 ± 0.27 mL and a body weight ([2]; male mice, Day 10) of 25.5 ± 1.05 gm. For the same compound, the food intake ([2]; male mice, Day 10) was 14.51 ± 0.77 gm, the water intake ([2]; male mice, Day 10) was 1.93 ± 0.23 mL and the body weight ([2]; male mice, Day 15) was 25.3 ± 0.52 gm. The food intake ([2]; male mice, Day 15) was 14.45 ± 0.78 gm, the water intake ([2]; male mice, Day 15) was 1.98 ± 0.25 mL and the “ACP, difference in values from paracetamol treated mice” value (“ACP, difference in values” for short) [3, 4] was “A = (a-b = 4) U/L”. For the same compound, the “ALP, difference in values from paracetamol treated mice” value (shortened to “ALP, difference in values”) [3, 4] was “A = (a-b = 21) IU/L”, the “ALT, difference in values from paracetamol treated mice” value (“ALT, difference in values” below) [3, 4] was “A = (a-b = 15) IU/L” and the “AST, difference in values from paracetamol treated mice” value (from here on “AST, difference in values”) [3, 4] was “A = (a-b = 45) IU/L”. The “ACP, difference in values” value [3, 5] was “D = (a-e = 7.6) U/L”, the “ALP, difference in values” value [3, 5] was “D = (a-e = 26) IU/L” and the “ALT, difference in values” value [3, 5] was “D = (a-e = 36) IU/L”. The “AST, difference in values” value [3, 5] was “D = (a-e = 71) IU/L”, the ACP [3, 4] was 12 ± 0.71***(b) U/L and the ALP [3, 4] was 77 ± 11***(b) IU/L. The ALT [3, 4] was 71 ± 9**(b) ^ IU/L, the AST [3, 4] was 98 ± 10**(b) IU/L and the “Total Protein” value [3, 4] was 6.2 ± 0.16 g/dL. The ACP [3, 5] was 8.4 ± 1.2^#(e) ^ U/L, the ALP [3, 5] was 72 ± 6.9**(e) IU/L and the ALT [3, 5] was 50 ± 9.8*,^#(e) IU/L. For the same compound, the AST [3, 5] was 72 ± 6*,^#(e)^ IU/L, the “Total Protein” value [3, 5] was 6.2 ± 0.02 g/dL and the Relative liver weight ([3]; male and female mice, paracetamol study of Example IV) was “significantly (p<0.01) increased”. For the same compound, the “ACP, difference in values” value [3, 6] was “A = (a-b = 8.5) U/L”, the “ALP, difference in values” value [3, 6] was “A = (a-b = 38.33) IU/L” and the “ALT, difference in values” value [3, 6] was “A = (a-b = 7.29) IU/L”. The “AST, difference in values” value [3, 6] was “A = (a-b = 30.67) IU/L”, the “ACP, difference in values” value [3, 7] was “D = (a-e = 5.44) U/L” and the “ALP, difference in values” value [3, 7] was “D = (a-e = 43.75) IU/L”. For the same compound, the “ALT, difference in values” value [3, 7] was “D = (a-e = 16.14) IU/L”, the “AST, difference in values” value [3, 7] was “D = (a-e = 31.7) IU/L” and the ACP [3, 6] was 9.69 ± 0.32**,^##(b) U/L. The ALP [3, 6] was 90.17 ± 4.16***,^#(b) IU/L, the ALT [3, 6] was 60.34 ± 4.78 (b) IU/L and the AST [3, 6] was 71.38 ± 4.63^#(b)^ IU/L. For the same compound, the “Total Protein” value [3, 6] was 7.28 ± 0.14 g/dL, the ACP [3, 7] was 12.75 ± 1.43 (e) U/L and the ALP [3, 7] was 84.75 ± 5.32*,^#(e)^ IU/L. For the same compound, the ALT [3, 7] was 51.49 ± 4.49 (e)^ IU/L, the AST [3, 7] was 70.35 ± 6.21(e)^ IU/L and the “Total Protein” value [3, 7] was 7.34 ± 0.15 g/dL. The “hepatoprotective activity (conclusion, Tables 15 and 16)” value ([3]; paracetamol-induced hepatotoxicity, male and female mice) was “hepatoprotective activity in a dose dependent manner”.
